Reference: the NIST ThermoML archive (doi:10.1007/s10765-009-0568-4)
Values joined by “and” are separate entries in the source; they are usually repeats but may differ in a detail not shown here. Equal entries are not always repeated. ± gives the expanded uncertainty stated by the source.

Assay: molar heat capacity at constant pressure
Settings: 101.33 kPa, Crystal

O=C([O-])c1ccccc1.[K+] [potassium benzoate]
Settings | molar heat capacity at constant pressure
78.05 K | 64.02 ± 0.61 J/K/mol
79.77 K | 65.4 ± 0.62 J/K/mol
80 K | 66.51 ± 0.63 J/K/mol
82.44 K | 67.11 ± 0.64 J/K/mol
85 K | 69.25 ± 0.65 J/K/mol
85.05 K | 69.06 ± 0.65 J/K/mol
87.58 K | 70.57 ± 0.66 J/K/mol
90 K | 71.99 ± 0.88 J/K/mol
90.05 K | 72.16 ± 0.88 J/K/mol
92.46 K | 73.51 ± 0.89 J/K/mol
94.82 K | 75.08 ± 0.9 J/K/mol
95 K | 74.71 ± 0.9 J/K/mol
97.13 K | 76.49 ± 0.91 J/K/mol
99.4 K | 77.52 ± 0.91 J/K/mol
100 K | 77.41 ± 0.91 J/K/mol
101.6 K | 78.59 ± 0.92 J/K/mol
103.8 K | 79.84 ± 0.93 J/K/mol
105 K | 80.09 ± 0.93 J/K/mol
106 K | 81.03 ± 0.93 J/K/mol
108.1 K | 82.38 ± 0.94 J/K/mol
110 K | 82.77 ± 0.94 J/K/mol
110.2 K | 83.34 ± 0.94 J/K/mol
112.2 K | 84.3 ± 0.95 J/K/mol
114.2 K | 85.15 ± 0.95 J/K/mol
115 K | 85.42 ± 0.96 J/K/mol
116.3 K | 86.65 ± 0.96 J/K/mol
118.3 K | 87.5 ± 0.97 J/K/mol
120 K | 88.06 ± 0.97 J/K/mol
120.4 K | 88.67 ± 0.97 J/K/mol
123.5 K | 90.49 ± 0.98 J/K/mol
125 K | 90.69 ± 0.99 J/K/mol
127.5 K | 92.84 ± 1 J/K/mol
130 K | 93.3 ± 1 J/K/mol
131.5 K | 94.64 ± 1 J/K/mol
135 K | 95.9 ± 1 J/K/mol
135.4 K | 96.31 ± 1 J/K/mol
139.4 K | 98.35 ± 1 J/K/mol
140 K | 98.48 ± 1 J/K/mol
143.3 K | 100.4 ± 1 J/K/mol
145 K | 101 ± 1 J/K/mol
147.2 K | 102.3 ± 1.1 J/K/mol
150 K | 103.6 ± 1.1 J/K/mol
151.1 K | 103.9 ± 1.1 J/K/mol
154.9 K | 105.6 ± 1.1 J/K/mol
155 K | 106.1 ± 1.1 J/K/mol
158.6 K | 107.2 ± 1.1 J/K/mol
160 K | 108.6 ± 1.1 J/K/mol
162.3 K | 108.9 ± 1.1 J/K/mol
165 K | 111.2 ± 1.1 J/K/mol
166 K | 110.7 ± 1.1 J/K/mol
169.7 K | 112.6 ± 1.1 J/K/mol
170 K | 113.6 ± 1.1 J/K/mol
173.3 K | 114.5 ± 1.1 J/K/mol
175 K | 116.1 ± 1.1 J/K/mol
176.9 K | 115.9 ± 1.1 J/K/mol
180 K | 118.6 ± 1.1 J/K/mol
180.4 K | 117.8 ± 1.1 J/K/mol
185 K | 121 ± 1.2 J/K/mol
185.2 K | 119.9 ± 1.2 J/K/mol
190 K | 123.5 ± 1.2 J/K/mol
190.3 K | 122.8 ± 1.2 J/K/mol
194.3 K | 124.8 ± 1.2 J/K/mol
195 K | 125.9 ± 1.2 J/K/mol
198.3 K | 127 ± 1.2 J/K/mol
200 K | 128.3 ± 1.2 J/K/mol
202.2 K | 129 ± 1.2 J/K/mol
205 K | 130.6 ± 1.2 J/K/mol
206.2 K | 131.6 ± 1.2 J/K/mol
210 K | 133 ± 1.2 J/K/mol
210.2 K | 133.5 ± 1.2 J/K/mol
214.1 K | 135.5 ± 1.3 J/K/mol
215 K | 135.4 ± 1.3 J/K/mol
218.1 K | 137.3 ± 1.3 J/K/mol
220 K | 137.7 ± 1.3 J/K/mol
222.1 K | 139.3 ± 1.3 J/K/mol
225 K | 140 ± 1.3 J/K/mol
226.1 K | 141 ± 1.3 J/K/mol
230 K | 142.3 ± 1.3 J/K/mol
230.1 K | 142.7 ± 1.3 J/K/mol
234 K | 144.9 ± 1.3 J/K/mol
235 K | 144.6 ± 1.3 J/K/mol
237.9 K | 146.3 ± 1.3 J/K/mol
240 K | 146.9 ± 1.3 J/K/mol
243.1 K | 149 ± 1.3 J/K/mol
245 K | 149.2 ± 1.3 J/K/mol
248.2 K | 151.2 ± 1.3 J/K/mol
250 K | 151.4 ± 1.3 J/K/mol
252.2 K | 152.7 ± 1.4 J/K/mol
255 K | 153.7 ± 1.4 J/K/mol
256.1 K | 154.1 ± 1.4 J/K/mol
260 K | 155.9 ± 1.4 J/K/mol
260.1 K | 156.2 ± 1.4 J/K/mol
264.1 K | 158.2 ± 1.4 J/K/mol
265 K | 158.1 ± 1.4 J/K/mol
268.1 K | 160.2 ± 1.4 J/K/mol
270 K | 160.3 ± 1.4 J/K/mol
272.1 K | 161.4 ± 1.4 J/K/mol
275 K | 162.5 ± 1.4 J/K/mol
276.1 K | 163.3 ± 1.4 J/K/mol
280 K | 165.1 ± 1.4 J/K/mol and 164.6 ± 1.4 J/K/mol
284 K | 166.4 ± 1.4 J/K/mol
285 K | 166.8 ± 1.4 J/K/mol
287.9 K | 168.1 ± 1.5 J/K/mol
290 K | 168.9 ± 1.5 J/K/mol
291.8 K | 169.9 ± 1.5 J/K/mol
295 K | 171 ± 1.5 J/K/mol
295.9 K | 171.5 ± 1.5 J/K/mol
298.15 K | 172.3 ± 1.5 J/K/mol
299.8 K | 172.8 ± 1.5 J/K/mol
300 K | 173.1 ± 1.5 J/K/mol
303.7 K | 174.3 ± 1.5 J/K/mol
305 K | 175.2 ± 1.5 J/K/mol
307.8 K | 176.1 ± 1.5 J/K/mol
310 K | 177.3 ± 1.5 J/K/mol
311.7 K | 177.6 ± 1.5 J/K/mol
315 K | 179.3 ± 1.5 J/K/mol
315.6 K | 179.5 ± 1.5 J/K/mol
319.5 K | 180.7 ± 1.5 J/K/mol
320 K | 181.4 ± 1.5 J/K/mol
323.5 K | 182.2 ± 1.5 J/K/mol
325 K | 183.4 ± 1.5 J/K/mol
327.4 K | 183.7 ± 1.5 J/K/mol
330 K | 185.4 ± 1.6 J/K/mol
331.4 K | 185.4 ± 1.6 J/K/mol
335 K | 187.4 ± 1.6 J/K/mol
335.5 K | 187.1 ± 1.6 J/K/mol
339.4 K | 188.7 ± 1.6 J/K/mol
340 K | 189.4 ± 1.6 J/K/mol
343.5 K | 190.7 ± 1.6 J/K/mol
345 K | 191.4 ± 1.6 J/K/mol
346.5 K | 192.2 ± 1.6 J/K/mol
349.5 K | 193.4 ± 1.6 J/K/mol
350 K | 193.3 ± 1.6 J/K/mol
353.5 K | 195 ± 1.6 J/K/mol
355 K | 195.3 ± 1.6 J/K/mol
357.5 K | 196.3 ± 1.6 J/K/mol
360 K | 197.2 ± 1.6 J/K/mol
361.4 K | 197.9 ± 1.6 J/K/mol
365 K | 199.1 ± 1.6 J/K/mol
365.3 K | 199.4 ± 1.6 J/K/mol
369.2 K | 200.8 ± 1.7 J/K/mol
370 K | 201 ± 1.7 J/K/mol
373.3 K | 202.3 ± 1.7 J/K/mol
375 K | 202.9 ± 1.7 J/K/mol
377.4 K | 203.7 ± 1.7 J/K/mol
380 K | 204.8 ± 1.7 J/K/mol
381.4 K | 205.6 ± 1.7 J/K/mol
385 K | 206.6 ± 1.7 J/K/mol
385.4 K | 206.8 ± 1.7 J/K/mol
389.4 K | 208.1 ± 1.7 J/K/mol
390 K | 208.4 ± 1.7 J/K/mol
393.4 K | 209.9 ± 1.7 J/K/mol
395 K | 210.3 ± 1.7 J/K/mol
397.3 K | 211.1 ± 1.7 J/K/mol
